Test results published in US6630120B1, “Agents to increase the uptake of pharmaceuticals and diagnostic substances into solid tumors” (priority 1999, dated 2003).
Where two headings read alike, the source gives them in different places.

Tests used:
implanted tumor and lung = experiment: Retention of 14C-carboplatin in solid tumors and in lung; type: in vivo, rat; details: FIG. 8
Experimental: The carboplatin was administered two minutes into a five minute Cereport™ infusion.

[1] = tested on: MAT B-III metastatic lung tumors; experiment: Animal survival with MAT B-III metastatic lung tumors after carboplatin and Cereport; type: in vivo, rat; details: FIG. 13
Experimental: MAT B-III cells were introduced into the lungs of 12 female F-344 Fisher rats by intrajugular injections of either 1×10^5 or 1×10^6 cells in 200 μl suspensions. The cells and animals were maintained and handled as described in Example 1. At various times following the injections, the number of surface tumor colonies on the lungs was assessed. Tumors were visually counted by injecting India ink into the trachea of the animals.
Finally, the effects of the administration of carboplatin and Cereport™ on the survival of animals who had been subjected to the implantation of MAT B-III metastatic lung surface tumors was assessed. In this study, 1×10^6 MAT B-III cells as a 200 μl suspension were implanted by intrajugular injection in 54 male Fischer rats. Sixteen days later, indwelling cannulae were inserted in the previously implanted jugular vein. On days 16 and 23, the animals received a continuous infusion of 5 mg/kg of carboplatin over a 15 minute period. Immediately following the 15 minute carboplatin infusion, the animals received a 10 minute continuous infusion of either saline or Cereport (1.5 μg/kg). The survival rates for the animals were then monitored.

[2] = tested on: MAT B (III) rat mammary adenocarcinoma tumor implanted in the flank
Experimental: A series of studies were carried out on rat hosts in which suspended tumor cells had been subcutaneously implanted in the flank of the animal to create a solid tumor in situ. The effects of the administration of Cereport™ on the incorporation of ^14C-carboplatin into the tumor were evaluated.
Male Fischer rats (170-220 g; Taconic Farms, Germantown, N.Y.) were used in these studies. Animals were housed in pairs in polypropylene cages with free access to food and water. The vivarium was maintained on a 12 h light: 12 h dark cycle with a room temperature of 22±1° C. and relative humidity level of 50±5%.
The MAT B (III) cell line (ATCC CRL-1666), a rat ascites mammary adenocarcinoma, was used to produce peripheral tumors upon implantation in rats. Cells were grown and maintained at 37° C. in a 95% air/5% CO2 humidified atmosphere using McCoy's medium 5A (GIBCO) supplemented with 20 mM HEPES, 1/2X Antibody-Antimycotic, and 10% heat-inactivated Fetal Bovine Serum.
Immediately prior to implantation, MAT B-III cells were suspended in 1.2% methyl cellulose at a density of 5×10^6/ml. 200 μl of this suspension (1×10^6 cells) was injected subcutaneously into the flank of each animal using a 22G needle.
One week after tumor implantation, and under urethane anesthesia (1.8 g/kg; i.p.), cannulae (PE50, Clay Adams, Bectin Dickinson, Sparks, Md.) were placed in the jugular vein for drug administration and both femoral arteries for the measurement of physiological parameters.
Cereport™ (RMP-7, Alkermes, Inc., Cambridge, Mass.) and ^14C-carboplatin or -dextran (SA=144 μCi/mg and 1.08 μCi/mg respectively) were dissolved in sterile 0.9% saline and infused intravenously using a syringe pump at a rate of 0.05 ml/min over the entire administration period. Using the human clinical protocol as a basis, ^14C-carboplatin or dextran (100 μCi/kg) was infused for 15 minutes followed immediately by a 10 minute infusion of Cereport™. Throughout the experiment, body temperature was maintained normothermic (37.0±1.0° C.) and arterial blood gases, pH, and blood pressure were monitored. Animals with physiological values outside the normal ranges were not used.
At the end of the drug administration protocol, rats were sacrificed and the peripheral tumor was rapidly removed. A 1-2 mm thick slice was cut from the center of tumor. The slice was then divided into two equal parts comprising the center of the dissected piece (inner tumor) and the outside edge (outer tumor). Each tumor sample was weighed and placed into a scintillation vial and the amount of radioactivity (nCi/g) was computed for each region using scintillation counts as a measure of the radioactivity.

[3] = tested on: MAT B-III tumor in rear flank or mammary fat pads; details: FIG. 5; female Fischer rats; 15 min carboplatin then 10 min Cereport 1.0 μg/kg
Experimental: MAT B-III cells (1×10^6) were implanted in two anatomically distinct sites in female Fischer rats. The tumor cells were implanted into either the subcutaneous space of the rear flank or orthotopically into mammary fat pads. Seven days later, the animals received a 15 minute i.v. infusion of ^14C-Carboplatin (100 μCi/kg) followed immediately by a 10 minute infusion of either saline or Cereport™ at 1.0 μg/kg. Following the saline or Cereport™ infusion, the tumor was rapidly removed and dissected into inner and outer regions. The amount of radioactivity of each tumor region was determined by scintillation counts.

[4] = tested on: MAT B-III tumor implanted into the liver; details: FIG. 6
Experimental: MAT B-III cells (1×10^6) were implanted directly into the liver of male Fischer rats using a 25G needle and 1 ml tuberculin syringe. Fourteen days later, the animals received a 15 minute i.v. infusion of ^14C-carboplatin (100 μCi/kg) followed immediately by a 10 minute infusion of either saline or Cereport™ at 1.0 μg/kg. Following the saline or Cereport™ infusion, the liver was rapidly removed. The tumor was dissected free of the surrounding liver tissue and divided into inner and outer regions. A 1 mm strip of liver that immediately surrounded the tumor (inner ring) and the adjacent 1 mm strip of liver (outer ring) were also removed and assayed. In addition, an equivalent strip of liver from the untreated lobe, was removed and assayed. This liver strip served as a control.

[5] = tested on: implanted tumor and various organs; details: FIG. 7; Cereport 1 μg/kg; carboplatin bolus two minutes into five minute Cereport infusion
Experimental: The carboplatin was administered as a bolus two minutes into a five minute Cereport™ infusion.

Walker 256 tumor = details: FIG. 9; male Wistar rats; 15 min carboplatin then 10 min Cereport 1.0 μg/kg
Experimental: Walker 256 cells (ATCC CCL-38) (1×10^7) were implanted into the subcutaneous space of the rear flank of male Wistar rats to create a solid tumor in situ in the same manner as previously described for the MAT B-III cells. Eight days later, the animals received a 15 minute i.v. infusion of ^14C-carboplatin (100 μCi/kg) followed immediately by a 10 minute infusion of either saline or Cereport™ at 1.0 μg/kg. Following the saline or Cereport™ infusion, the tumor was rapidly removed and dissected into inner and outer regions. The amount of radioactivity of each tumor region was determined by scintillation counts.

implanted tumor [6] = details: FIG. 10
Experimental: In some instances, Cereport™ is administered in addition to carboplatin. The carboplatin was infused for 15-minutes followed immediately by a 10 minute infusion of Cereport™ at 1.5 μg/kg.

implanted tumor [7] = details: FIG. 14; Cereport infusion for 10 minutes at 1 μg/kg
Source text: Interstitial fluid pressure is a severe impediment for administered substances into tumor interstitial spaces from the bloodstream.

[8] = target: angiotensin converting enzyme (ACE) (Homo sapiens, UniProt P12821); details: general statement, no method given; cited from earlier work
angiotensin converting enzyme (ACE), sequence (P12821 30-1306, species assumed): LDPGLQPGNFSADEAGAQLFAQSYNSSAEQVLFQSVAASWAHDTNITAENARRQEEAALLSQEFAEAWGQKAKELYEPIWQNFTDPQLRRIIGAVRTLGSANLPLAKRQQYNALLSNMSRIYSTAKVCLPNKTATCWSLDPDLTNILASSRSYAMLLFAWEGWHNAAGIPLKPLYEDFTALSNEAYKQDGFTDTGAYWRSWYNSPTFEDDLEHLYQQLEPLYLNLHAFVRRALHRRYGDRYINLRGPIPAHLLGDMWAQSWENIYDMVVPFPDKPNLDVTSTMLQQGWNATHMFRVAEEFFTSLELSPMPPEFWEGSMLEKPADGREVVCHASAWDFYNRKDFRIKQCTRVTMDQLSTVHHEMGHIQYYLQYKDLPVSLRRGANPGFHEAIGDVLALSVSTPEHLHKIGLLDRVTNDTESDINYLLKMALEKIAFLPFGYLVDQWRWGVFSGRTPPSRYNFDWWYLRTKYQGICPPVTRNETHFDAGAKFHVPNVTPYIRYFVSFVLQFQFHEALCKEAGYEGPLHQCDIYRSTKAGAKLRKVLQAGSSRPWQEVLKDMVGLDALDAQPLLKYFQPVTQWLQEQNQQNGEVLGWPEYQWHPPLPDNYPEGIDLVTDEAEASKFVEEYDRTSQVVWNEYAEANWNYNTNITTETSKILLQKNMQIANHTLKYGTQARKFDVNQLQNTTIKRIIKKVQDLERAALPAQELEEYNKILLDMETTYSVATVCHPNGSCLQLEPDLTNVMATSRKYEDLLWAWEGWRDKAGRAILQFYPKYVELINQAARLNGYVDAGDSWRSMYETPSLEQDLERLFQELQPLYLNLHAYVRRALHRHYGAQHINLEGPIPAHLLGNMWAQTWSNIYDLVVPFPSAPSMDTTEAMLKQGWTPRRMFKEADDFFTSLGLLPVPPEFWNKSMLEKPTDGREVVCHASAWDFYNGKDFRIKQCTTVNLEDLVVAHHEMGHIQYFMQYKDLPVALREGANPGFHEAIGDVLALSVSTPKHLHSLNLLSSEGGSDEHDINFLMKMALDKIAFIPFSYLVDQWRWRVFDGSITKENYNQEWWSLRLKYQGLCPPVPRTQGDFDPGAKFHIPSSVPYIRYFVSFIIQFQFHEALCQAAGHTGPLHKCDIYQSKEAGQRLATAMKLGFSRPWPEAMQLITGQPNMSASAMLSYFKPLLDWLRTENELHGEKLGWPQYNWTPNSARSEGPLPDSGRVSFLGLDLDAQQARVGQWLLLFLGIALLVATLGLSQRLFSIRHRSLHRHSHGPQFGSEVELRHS

[9] = eighth day, carboplatin plus Cereport 1.5 μg/kg

## N.N.O=C([O-])C1(C(=O)[O-])CCC1.[Pt+2] [carboplatin]
Implanted tumor and lung; after Cereport administration, carboplatin two minutes into five minute Cereport infusion
  retention of carboplatin in tumor tissue: at least 90 minutes
Implanted tumor and lung; after the initial uptake following Cereport administration
  retention of carboplatin in lung: not retained
[1]; carboplatin 5 mg/kg by itself (followed by saline) on days 16 and 23
  prolongation of survival versus no carboplatin: approximately 10 days

## arginine-proline-hydroxyproline-glycine-thienylalanine-serine-proline-4-Me-tyrosineψ(CH2NH)arginine [Cereport™]
[2]; FIG. 1, carboplatin bolus two minutes into a ten minute Cereport infusion, three Cereport infusion amounts, vs no Cereport
  carboplatin uptake into inner tumor and outer tumor: significantly taken up
[2]; FIG. 2, carboplatin bolus two minutes into a five minute Cereport infusion, Cereport 0.5 μg/kg
  carboplatin uptake into inner tumor and outer tumor: not significantly taken up
[2]; FIG. 2, carboplatin bolus two minutes into a five minute Cereport infusion, Cereport 0.75 μg/kg
  carboplatin uptake into inner tumor and outer tumor: significantly taken up
[2]; FIG. 2, carboplatin bolus two minutes into a five minute Cereport infusion, Cereport 1.0 μg/kg
  carboplatin uptake into inner tumor and outer tumor: significantly taken up
[2]; FIG. 2, carboplatin bolus two minutes into a five minute Cereport infusion, Cereport 1.75 μg/kg
  carboplatin uptake into inner tumor and outer tumor: significantly taken up
[2]; FIG. 2, carboplatin bolus two minutes into a five minute Cereport infusion, Cereport 2.5 μg/kg
  carboplatin uptake into inner tumor and outer tumor: significantly taken up
[2]; FIG. 2, carboplatin bolus two minutes into a five minute Cereport infusion, Cereport 5.0 μg/kg
  carboplatin uptake into inner tumor and outer tumor: not significantly taken up
[2]; FIG. 3, carboplatin infused 15 minutes prior to Cereport, Cereport 0.36 μg/kg
  carboplatin uptake into inner tumor and outer tumor: possible exception
[2]; FIG. 3, carboplatin infused 15 minutes prior to Cereport, all Cereport doses other than 0.36 μg/kg
  carboplatin uptake into inner tumor and outer tumor: significantly taken up
[2]; FIG. 4, dextran infused 15 minutes prior to Cereport, three Cereport infusion amounts, vs no Cereport
  dextran (MW 70 kDa) uptake into inner tumor and outer tumor: significantly taken up
[3]
  carboplatin uptake into implanted tumor located in the flank: significantly taken up
  carboplatin uptake into implanted tumor located in the mammary pad: significantly taken up
[4]; 15 min carboplatin then 10 min Cereport 1.0 μg/kg
  carboplatin uptake into tumor implanted in the liver: significantly taken up
[4]; inner and outer ring liver strips, Cereport 1.0 μg/kg
  carboplatin uptake into liver tissue adjacent to the tumor: does not have a significant effect
[4]; strip from untreated lobe, Cereport 1.0 μg/kg
  carboplatin uptake into control strip of liver: does not have a significant effect
[5]
  carboplatin uptake in tumor tissue compared with heart, lung and liver: far surpasses
  carboplatin uptake into heart, lung and liver: some uptake
Walker 256 tumor
  carboplatin uptake into inner and outer region of Walker 256 tumor: significantly taken up
Implanted tumor [6]; 15 min carboplatin then 10 min Cereport 1.5 μg/kg
  regression of the implanted tumor in comparison to carboplatin alone: markedly cause regression
Implanted tumor [6]; [9]
  tumor size relative to size if Cereport had not been administered with the carboplatin: approximately one half
  tumor size relative to size if no carboplatin had been administered: approximately one third
[1]; carboplatin 5 mg/kg followed by Cereport 1.5 μg/kg on days 16 and 23
  additional extension of survival profile beyond carboplatin alone: approximately 10 days
Implanted tumor [7]
  decrease of interstitial fluid pressure in implanted tumors: up to 40%
[8]
  degradation by angiotensin converting enzyme (ACE): not significantly degraded
